Laboratory results taken from patent US8680139B2 (Progenra, priority 2009, dated 2014).

Target: T1, USP7 (Homo sapiens, UniProt Q93009)
T1 construct: full length human USP7 protein; made in house
Test: USP7, Ub-PLA2 assay
Assay type: biochemical
Details: Ub-PLA2 / NBD C6-HPC fluorescence, 30 minute preincubation; read-out: EC50 for inhibition of USP7
Protocol: The purpose of this assay is to measure the inhibition of USP7 by various compounds of the invention synthesized according to the above-described methods. […] The vehicle control was 100% (v/v) DMSO. 1.6 μL aliquots of the diluted test compound and controls were dispensed into individual wells in a black walled 96 well plate. […] The data were normalized within a plate relative to the control wells using the equation % inhibition=(100−(((RFUcompound−RFUmean NEM) / (RFUmean DMSO−RFUmean NEM))×100)).

T1 sequence (Q93009 whole entry): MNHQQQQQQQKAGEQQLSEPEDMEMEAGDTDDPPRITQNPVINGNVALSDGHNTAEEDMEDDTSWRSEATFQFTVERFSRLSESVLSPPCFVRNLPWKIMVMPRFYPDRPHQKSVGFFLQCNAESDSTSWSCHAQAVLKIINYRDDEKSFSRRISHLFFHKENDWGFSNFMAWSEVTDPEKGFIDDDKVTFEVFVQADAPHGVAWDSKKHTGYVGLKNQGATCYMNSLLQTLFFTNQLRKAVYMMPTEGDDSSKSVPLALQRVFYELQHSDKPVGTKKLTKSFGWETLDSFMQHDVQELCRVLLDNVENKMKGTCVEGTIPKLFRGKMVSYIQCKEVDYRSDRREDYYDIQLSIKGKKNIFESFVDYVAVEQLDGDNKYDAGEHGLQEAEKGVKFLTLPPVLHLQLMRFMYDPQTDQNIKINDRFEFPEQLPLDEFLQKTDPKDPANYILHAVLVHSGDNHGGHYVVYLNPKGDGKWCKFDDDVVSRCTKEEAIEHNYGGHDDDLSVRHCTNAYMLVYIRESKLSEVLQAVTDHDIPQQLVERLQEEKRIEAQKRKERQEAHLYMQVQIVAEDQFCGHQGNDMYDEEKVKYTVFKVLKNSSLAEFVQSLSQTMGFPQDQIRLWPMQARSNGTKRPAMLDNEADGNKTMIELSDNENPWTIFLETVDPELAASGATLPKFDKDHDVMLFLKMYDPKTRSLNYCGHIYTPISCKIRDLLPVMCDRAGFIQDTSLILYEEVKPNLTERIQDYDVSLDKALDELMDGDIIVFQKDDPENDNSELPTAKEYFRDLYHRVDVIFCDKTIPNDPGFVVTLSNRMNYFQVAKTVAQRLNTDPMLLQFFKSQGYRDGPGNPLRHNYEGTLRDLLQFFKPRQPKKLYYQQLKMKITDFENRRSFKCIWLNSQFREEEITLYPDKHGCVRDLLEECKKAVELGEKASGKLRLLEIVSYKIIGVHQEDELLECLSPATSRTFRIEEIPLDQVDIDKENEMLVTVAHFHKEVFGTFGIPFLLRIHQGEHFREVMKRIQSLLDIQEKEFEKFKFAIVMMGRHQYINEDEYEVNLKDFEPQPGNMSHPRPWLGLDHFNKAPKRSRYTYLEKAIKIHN

SMILES: CC(=O)c1cc([N+](=O)[O-])c(Sc2ccccc2Cl)s1 [Example 1, 1-[5-(2-Chlorophenylsulfanyl)-4-nitro-2-thienyl]ethanone]
- EC50: > 10 µM

SMILES: CC(=O)c1cc([N+](=O)[O-])c(Sc2ccccc2C(F)(F)F)s1 [Example 4, 1-{4-Nitro-5-[2-(trifluoromethyl)phenylsulfanyl]-2-thienyl}ethanone]
- EC50: 1 to 10 µM

SMILES: CC(=O)c1cc([N+](=O)[O-])c(Sc2cccc3ccccc23)s1 [Example 5, 1-[5-(Naphth-1-ylsulfanyl)-4-nitro-2-thienyl]ethanone]
- EC50: > 10 µM

SMILES: CC(=O)c1cc([N+](=O)[O-])c(Sc2cccc(Cl)c2)s1 [Example 6, 1-[5-(3-Chlorophenylsulfanyl)-4-nitro-2-thienyl]ethanone]
- EC50: 1 to 10 µM

SMILES: CC(=O)c1cc([N+](=O)[O-])c(Sc2ccc(C(F)(F)F)cc2)s1 [Example 10, 1-{5-[4-(Trifluoromethyl)phenylsulfanyl]-4-nitro-2-thienyl}ethanone]
- EC50: 1 to 10 µM

SMILES: CC(=O)c1cc([N+](=O)[O-])c(Sc2ccc3ccccc3c2)s1 [Example 11, 1-[5-(2-Naphthylsulfanyl)-4-nitro-2-thienyl]ethanone]
- EC50: > 10 µM

SMILES: CC(=O)c1cc([N+](=O)[O-])c(Sc2ccc(Br)cc2)s1 [Example 12, 1-[5-(4-Bromophenylsulfanyl)-4-nitro-2-thienyl]ethanone]
- EC50: 1 to 10 µM

SMILES: CC(=O)c1cc([N+](=O)[O-])c(Sc2ccc([N+](=O)[O-])cc2)s1 [Example 13, 1-[4-nitro-5-(4-nitrophenylsulfanyl)-2-thienyl]ethanone]
- EC50: 1 to 10 µM

SMILES: CC(=O)c1cc([N+](=O)[O-])c(Sc2nccs2)s1 [Example 14, 1-(4-nitro-5-thiazol-2-ylsulfanyl-2-thienyl)ethanone]
- EC50: > 10 µM

SMILES: CC(=O)c1cc([N+](=O)[O-])c(Sc2nccn2C)s1 [Example 15, 1-[5-(1-methylimidazol-2-yl)sulfanyl-4-nitro-2-thienyl]ethanone]
- EC50: 1 to 10 µM

SMILES: CC(=O)c1cc([N+](=O)[O-])c(Sc2ccc(-c3ccccc3)cc2)s1 [Example 16, 1-[4-nitro-5-(4-phenylphenyl)sulfanyl-2-thienyl]ethanone]
- EC50: > 10 µM

SMILES: CC(=O)c1cc([N+](=O)[O-])c(Sc2c(Cl)c[n+]([O-])cc2Cl)s1 [Example 18, 1-[5-(3,5-dichloro-1-oxido-pyridin-1-ium-4-yl)sulfanyl-4-nitro-2-thienyl]ethanone]
- EC50: 1 to 10 µM

SMILES: CC(O)c1cc([N+](=O)[O-])c(Sc2cccc(Cl)c2Cl)s1 (stereo not shown) [Example 19, 1-[5-(2,3-dichlorophenyl)sulfanyl-4-nitro-2-thienyl]ethanol]
- EC50: > 10 µM

SMILES: CC(=O)c1cc(I)c(Sc2ccc(Cl)cc2Cl)s1 [Example 20, 1-[5-(2,4-dichlorophenyl)sulfanyl-4-iodo-2-thienyl]ethanone]
- EC50: > 10 µM

SMILES: CC(O)c1cc([N+](=O)[O-])c(Sc2ccc(Cl)cc2Cl)s1 (stereo not shown) [Example 26, 1-[5-(2,4-dichlorophenyl)sulfanyl-4-nitro-2-thienyl]ethanol]
- EC50: > 10 µM

SMILES: CC(N)c1cc([N+](=O)[O-])c(Sc2ccc(Cl)cc2Cl)s1 (stereo not shown) [Example 27, 1-[5-(2,4-dichlorophenyl)sulfanyl-4-nitro-2-thienyl]ethanamine]
- EC50: > 10 µM

SMILES: CNC(C)c1cc([N+](=O)[O-])c(Sc2ccc(Cl)cc2Cl)s1 (stereo not shown) [Example 28, 1-[5-(2,4-dichlorophenyl)sulfanyl-4-nitro-2-thienyl]-N-methyl-ethanamine]
- EC50: > 10 µM

SMILES: CC(c1cc([N+](=O)[O-])c(Sc2ccc(Cl)cc2Cl)s1)N(C)C (stereo not shown) [Example 29, 1-[5-(2,4-dichlorophenyl)sulfanyl-4-nitro-2-thienyl]-N,N-dimethyl-ethanamine]
- EC50: > 10 µM

SMILES: COc1ccc(CNC(C)c2cc([N+](=O)[O-])c(Sc3ccc(Cl)cc3Cl)s2)cc1 (stereo not shown) [Example 30, 1-[5-(2,4-dichlorophenyl)sulfanyl-4-nitro-2-thienyl]-N-[(4-methoxyphenyl)methyl]ethanamine]
- EC50: > 10 µM
